Measured values: PubChem BioAssay (NCI)
“And” between values parts separate entries of the source, which are not always exact repeats. Identical values can stand only once.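 Grown in 96-well plates, cells were treated for 48 hours with each compound at five concentrations. Insufficient inhibition: endpoint recorded as highest concentration tested. GI50 marks 50% less growth. At the TGI there is no net growth.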

Assays:
Assay in all cases: NCI anticancer screen, dose series, 48 h
[1] = tested on: M14 melanoma
[2] = tested on: KM20L2 colon
[3] = tested on: SNB-19 CNS
[4] = tested on: RXF 393 renal
[5] = tested on: HCT-116 colon
[6] = tested on: K-562 leukemia
[7] = tested on: NCI-H522 lung
[8] = tested on: LXFL 529 NSCLC
[9] = tested on: HCC-2998 colon
[10] = tested on: HOP-92 NSCLC

Oc1ccc2ccccc2c1N=Nc1ccsc1
TGI [1]: > 100 µM
TGI [2]: > 100 µM
TGI [3]: > 100 µM
TGI [4]: > 100 µM
TGI [5]: > 100 µM
TGI [6]: > 100 µM
TGI [7]: > 100 µM
TGI [8]: > 100 µM
TGI [9]: > 100 µM
TGI [10]: > 100 µM

CC(Nc1ccc(S(=O)(=O)N=C(N)N)cc1)c1c2ccccc2nc2ccccc12 (centres undefined)
TGI [1]: > 100 µM
TGI [2]: > 100 µM
TGI [3]: > 100 µM
TGI [4]: 85.3 µM
TGI [5]: > 10 µM
TGI [6]: 99.4 µM
TGI [7]: 38 µM
TGI [8]: 80.6 µM
TGI [9]: 82.7 µM
TGI [10]: 55.5 µM

O=C(O)C1(C(=O)O)CCC1.[NH2-].[NH2-].[Pt+2]
GI50 [1]: 109 µM and 184 µM
TGI [1]: 248 µM and > 250 µM
GI50 [2]: 212 µM
TGI [2]: > 235 µM
GI50 [3]: 148 µM and 103 µM
TGI [3]: 224 µM and > 250 µM
GI50 [4]: 76 µM and 178 µM
TGI [4]: 167 µM and > 250 µM
GI50 [5]: 176 µM and 196 µM
TGI [5]: 232 µM and > 250 µM
GI50 [6]: 142 µM and > 166 µM
TGI [6]: > 250 µM
GI50 [7]: 54.9 µM and 95.7 µM
TGI [7]: 145 µM and 190 µM
GI50 [8]: 247 µM
TGI [8]: > 250 µM
GI50 [9]: 209 µM and > 250 µM
TGI [9]: > 250 µM
GI50 [10]: 125 µM and 106 µM
TGI [10]: 222 µM and 246 µM

O=c1c(Br)cc2nc3ccccc3sc-2c1Br
TGI [1]: > 100 µM
TGI [2]: > 100 µM
TGI [3]: > 100 µM
TGI [4]: > 100 µM
TGI [5]: > 100 µM
TGI [6]: 55.5 µM
TGI [7]: 36.2 µM
TGI [8]: > 100 µM
TGI [9]: > 100 µM
TGI [10]: > 100 µM

Cc1ccc(NC(=O)CC2Sc3ccccc3NC2=O)c(C)c1 (centres undefined)
TGI [1]: 36.5 µM
TGI [2]: 30.5 µM
TGI [3]: 30.3 µM
TGI [4]: 31 µM
TGI [5]: 22 µM
TGI [6]: 19 µM
TGI [7]: 30.4 µM
TGI [8]: 71.1 µM
TGI [9]: 27.3 µM
TGI [10]: 39.5 µM

CC(=O)OC[C@@H](COC(=O)/C=C/c1ccc(O)cc1)OC1OC(CO)C(O)C(O)C1O (some centres undefined)
TGI [1]: > 100 µM
TGI [2]: > 100 µM
TGI [3]: > 100 µM
TGI [4]: > 100 µM
TGI [5]: > 100 µM
TGI [6]: > 100 µM
TGI [7]: > 100 µM
TGI [8]: > 100 µM
TGI [9]: > 100 µM
TGI [10]: > 100 µM

CCC[CH2][Sn]1([CH2]CCC)[O]CC(CN(C)Cc2ccccc2)[O]1 (centres undefined)
GI50 [1]: 2.45 µM
TGI [1]: 7.76 µM
GI50 [2]: 12 µM
TGI [2]: 26 µM
GI50 [3]: 12.6 µM
TGI [3]: 25.2 µM
TGI [4]: 23.1 µM
GI50 [5]: 15.7 µM
TGI [5]: 29.2 µM
GI50 [6]: 2.76 µM
TGI [6]: 12.9 µM
GI50 [7]: 1.94 µM
TGI [7]: 4.61 µM
GI50 [8]: 1.6 µM
TGI [8]: 5 µM
GI50 [9]: 11 µM
TGI [9]: 23.3 µM
GI50 [10]: 3.94 µM
TGI [10]: 19.7 µM

Cc1cccc(C)c1NC(=O)C1C(=O)N(c2c(C)cccc2C)C(=O)/C1=N\N (centres undefined)
TGI [1]: > 100 µM
TGI [2]: > 100 µM
TGI [3]: > 100 µM
TGI [4]: > 100 µM
TGI [5]: > 100 µM
TGI [6]: > 100 µM
TGI [7]: > 100 µM
TGI [8]: > 100 µM
TGI [9]: > 100 µM
TGI [10]: > 100 µM

COC(=O)c1cccn1C(=O)n1cccc1
TGI [1]: > 100 µM
TGI [2]: > 100 µM
TGI [3]: > 100 µM
TGI [4]: > 100 µM
TGI [5]: > 100 µM
TGI [6]: > 100 µM
TGI [7]: > 100 µM
TGI [8]: > 100 µM
TGI [9]: > 100 µM
TGI [10]: > 100 µM
